In patent publication US20160115540A1, “PRODRUGS AND DRUGS” (Biogen MA Inc., priority 2013, published 2016):
Where a name gives a salt, the structure may show the parent alone.

Test system: jejunum
Assay: Transcriptional profiling on Affymetrix GeneChips, single dose, naïve mice: jejunum
Type: in vivo, C57BL/6 mice
Conditions: for Number of differentially expressed genes identified: Jenjunum: Naïve, Single Dose, 100 mpk, vs Vehicle
Description: Treated mice were sacrificed at 2, 7, or 12 hours. Tissues (liver, spleen, kidney, jejunum, cortex, hippocampus, striatum and whole blood) were collected and analyzed by transcriptional profiling on mouse Affymetrix GeneChips.
Tissues (liver, spleen, kidney, jejunum, cortex, hippocampus, striatum and whole blood) were collected and analyzed by transcriptional profiling on mouse Affymetrix GeneChips.
Animals were exposed to CO2 and whole blood collected via cardiac puncture. Two 100 μl aliquots of whole blood were collected in 1.5 mL microcentrifuge tubes and snap frozen in liquid nitrogen. Peripheral (liver, spleen, kidney and jejunum) and CNS brain (cerebellum, hippocampus, striatum and cortex) tissues were harvested and snap frozen in liquid nitrogen, with special care taken to collect tissues of similar size and from the same location. All samples were stored at −80° C. until RNA extraction was conducted.
For RNA preparation, frozen tissues were placed in 2 mL RNAse-free 96-well blocks with 1.5 mL QIAzol Lysis Reagent (QIAgen) and a 3.2 mm stainless steel bead (BioSpec Products, Bartlesville, Okla.). Tissues were disrupted for four cycles of 45 seconds in a Mini-Beadbeater (Biospec Products). RNA was extracted in chloroform and the aqueous phase was mixed with an equal volume of 70% ethanol. Extracted RNA was applied to RNeasy 96 plates and purified by the spin method according to the manufacturer's protocol (RNeasy 96 Universal Tissue Protocol, QIAgen, Hilden Germany).
Automated sample amplifications and biotin labelings were carried out using the NuGEN Ovation RNA Amplification system V2 (Cat #3100), Ovation WB reagent (Cat #1300) and Encore Biotin module (Cat #4200) (NuGEN Technologies, Inc, San Carlos, Calif.) according to manufacturer's recommendations using an Arrayplex automated liquid handler (Beckman Coulter, Indianapolis, Ind.). Two micrograms of biotin labeled sscDNA probe were hybridized to Affymetrix GeneChip Affymetrix HT_MG-430_PM plate arrays with modified conditions as described in Allaire et al. Washing and staining of the hybridized arrays were completed as described in the GeneChip Expression analysis technical manual for HT plate arrays using the Genechip® Array Station (Affymetrix, Santa Clara, Calif.) with modifications as described in Allaire et al. The processed GeneChip® plate arrays were scanned using GeneTitan scanner (Affymetrix, Santa Clara, Calif.).
Affymetrix scans were subject to quality control (QC) measures. These tests included a visual inspection of the distribution of raw signal intensities and an assessment of RNA degradation, relative log expression (RLE), and normalized unsealed standard error (NUSE). All sample scans that passed these QC metrics were included in the analysis.
All CEL files were subjected to GC-content-based Robust Multi-array Average (GCRMA) normalization (version 2.20.0) (Irizarry R A, et al. Nucleic Acids Res 2003; 31:e15; Li C, et al. Genome Biol 2001; 2:[…]0032). Expression levels were log (base 2) transformed.
All calculations and analyses were carried out using R (version 2.11.1) and Bioconductor computational tools (Gentleman R. Springer Science+Business Media 2005).

[1] = jejunum, 2 hr after single 100 mg/kg oral dose
[2] = jejunum, 7 hr after single 100 mg/kg oral dose
[3] = jejunum, 12 hr after single 100 mg/kg oral dose

## COC(=O)/C=C/C(=O)O [MMF, monomethyl fumarate]
Jejunum, 7 hr
  Gstm7 (1419072_PM_at) differential expression: 1.97
  Htatip2 (1451814_PM_a_at) differential expression: 1.68
  Ifit1 (1450783_PM_at) differential expression: −1.95
  Matn2 (1419442_PM_at) differential expression: 1.59
  Me1 (1416632_PM_at) differential expression: 2.01
  Nqo1 (1423627_PM_at) differential expression: 2.63
  Pgd (1423706_PM_a_at) differential expression: 1.55
  Pgm2 (1437240_PM_at) differential expression: 1.54
  Pir (1429001_PM_at) differential expression: 5.12
  Prss8 (1418320_PM_at) differential expression: 1.75
  Rsad2 (1436058_PM_at) differential expression: −1.81
  Rtp4 (1418580_PM_at) differential expression: −1.61
  Setd4 (1435405_PM_at) differential expression: 2.27
  Slc5a4b (1422757_PM_at) differential expression: 1.79
  Slc35e3 (1428805_PM_at) differential expression: 1.67
  Txnrd1 (1424487_PM_x_at) differential expression: 2.07
  Ugt2b5 (1419622_PM_at) differential expression: 4.50
  Ugt2b36 (1455595_PM_at) differential expression: 2.50
Jejunum, 12 hr
  Abcc3 (1428988_PM_at) differential expression: 2.10
  Acsm5 (1437662_PM_at) differential expression: 1.95
  Akr1c12 (1422000_PM_at) differential expression: 1.52
  Akr1c12 /// Akr1c13 (1450455_PM_s_at) differential expression: 1.76
  Akr1c13 (1418672_PM_at) differential expression: 2.01
  Aldh1a7 (1418601_PM_at) differential expression: 1.74
  Apob (1457554_PM_at) differential expression: −1.54
  Blvrb (1451386_PM_at) differential expression: 1.54
  Ces1e (1419510_PM_at) differential expression: 2.77
  Dio1 (1417991_PM_at) differential expression: −1.51
  Ephx1 (1422438_PM_at) differential expression: 2.17
  Fst (1434458_PM_at) differential expression: 1.94
  G6pd2 /// G6pdx (1422327_PM_s_at) differential expression: 1.83
  Gm3776 /// Gsta1 /// Gsta2 (1421041_PM_s_at) differential expression: 2.09
  Gpx2 (1449279_PM_at) differential expression: 1.54
  Gsr (1421816_PM_at) differential expression: 2.67
  Gss (1441931_PM_x_at) differential expression: 1.55
  Gsta3 (1423436_PM_at) differential expression: 10.80
  Gsta4 (1416368_PM_at) differential expression: 2.66
  Gstm1 (1416416_PM_x_at) differential expression: 3.70
  Gstm2 (1416411_PM_at) differential expression: 2.20
  Gstm4 (1424835_PM_at) differential expression: 5.43
  Gstm6 (1422072_PM_a_at) differential expression: 2.19
  Kif1b (1451642_PM_at) differential expression: −1.51
  Nqo1 (1423627_PM_at) differential expression: 2.34
  Pir (1429001_PM_at) differential expression: 4.19
  Setd4 (1435405_PM_at) differential expression: 1.60
  Slc5a4b (1422757_PM_at) differential expression: 2.16
  Ugt2b5 (1419622_PM_at) differential expression: 5.00
  Ugt2b36 (1455595_PM_at) differential expression: 3.03
2 h after last dosing
  Number of differentially expressed genes identified: Jenjunum: 67
7 h after last dosing
  Number of differentially expressed genes identified: Jenjunum: 74
12 h after last dosing
  Number of differentially expressed genes identified: Jenjunum: 45
[1]
  6-Sep (septin 6) mRNA fold change vs vehicle: 1.56
  Bmp2 mRNA fold change vs vehicle: −1.55
  Figf mRNA fold change vs vehicle: 1.63
  Gabarapl1 mRNA fold change vs vehicle: 1.52
  Hfe mRNA fold change vs vehicle: 1.73
  Hmox1 mRNA fold change vs vehicle: 1.81
  Lpin2 mRNA fold change vs vehicle: 1.61
  Lrp8 mRNA fold change vs vehicle: 2.23
  Prr5l mRNA fold change vs vehicle: −1.64
  Slc2a1 mRNA fold change vs vehicle: 1.68
  Slc48a1 mRNA fold change vs vehicle: 1.62
  Slfn2 mRNA fold change vs vehicle: −1.82
  Sos1 mRNA fold change vs vehicle: −1.57
  St3gal6 mRNA fold change vs vehicle: 1.52
  Tkt mRNA fold change vs vehicle: 1.73
  Tnfaip3 mRNA fold change vs vehicle: −1.67
[2]
  Abcc2 mRNA fold change vs vehicle: 1.51
  Asns mRNA fold change vs vehicle: 1.60
  Capn13 mRNA fold change vs vehicle: −1.75
  Enkur mRNA fold change vs vehicle: −1.56
  Fam162a mRNA fold change vs vehicle: 1.67
  Gm14446 mRNA fold change vs vehicle: −1.65
  Gstm7 mRNA fold change vs vehicle: 1.97
  Ifit1 mRNA fold change vs vehicle: −1.95
  Matn2 mRNA fold change vs vehicle: 1.59
  Me1 mRNA fold change vs vehicle: 2.01
  Pgd mRNA fold change vs vehicle: 1.55
  Rsad2 mRNA fold change vs vehicle: −1.81
  Rtp4 mRNA fold change vs vehicle: −1.61
[3]
  Akr1c12 mRNA fold change vs vehicle: 1.52
  Apob mRNA fold change vs vehicle: −1.54
  Dio1 mRNA fold change vs vehicle: −1.51
  Ephx1 mRNA fold change vs vehicle: 2.17
  Fst mRNA fold change vs vehicle: 1.94
  Kif1b mRNA fold change vs vehicle: −1.51
